Assay results from patent publication US7897772B2, “Acid addition salt of irinotecan” (priority 2004, dated 2011).
Where a name gives a salt, the structure may show the parent alone.

Key:
[1] = Dissolution of irinotecan acid addition salts in water at 100 mg/mL at room temperature and state of the solution after 6 days of stirring (Example 1); format: physicochemical; details: for State of the Solution after Day 6: 100 mg/mL aqueous solution, membrane-filtered, stirred at room temperature (25° C.) for 6 days, visually observed; for Dissolution of the salt in water at room temperature: salt content adjusted to 100 mg/mL, no heating
Procedure: To an aqueous suspension of irinotecan (1-ethyl-10-[4-(1-piperidino)-1-piperidino]carbonyloxycamptothecin) produced through the method disclosed in Patent Document 1, each acid species was added, to thereby produce a corresponding irinotecan acid addition salt. The irinotecan acid addition salt content was adjusted to 100 mg/mL. […] Each of the aqueous solutions employing sulfuric acid, phosphoric acid methanesulfonic acid, citric acid, maleic acid, and succinic acid, respectively, was filtered by a membrane filter, and the filtrate was stirred at room temperature (25° C.). After continuous stirring for 6 days, the aqueous solution was visually observed so as to evaluate the state of the solution.

[2] = Peroral absorbability in beagles: plasma irinotecan level and pharmacokinetic analysis (Example 6); format: in vivo
From the text: To each beagle, a solid chow (about 350 g) was fed once a day at around 3 p.m., and the unconsumed chow was removed at around 9 a.m. on the following day, except that on the day before the day of administration the unconsumed chow was removed about two hours after feeding. On the day of administration, blood was drawn three hours after administration and the chow was fed after blood collection. On the day after the day of administration, the unconsumed chow was removed at 9 a.m.
After administration, tap water (about 20 mL) was fed to the mouth of the beagle by use of an injection syringe.
The thus-collected blood samples were dispensed into 1.5-mL tubes, to which heparin sodium (20 μL, 20 units) had been added in advance and which had been dried under nitrogen flow (tubes employed for the first administration were not dried). The samples were centrifuged (4° C., about 13,000×g, one minute) to thereby obtain plasma.
The lower quantification limit was […] plasma.
Non-compartmental analysis of the obtained data was performed by use of a WinNonlin Ver4.1. Data of the following pharmacokinetic parameters were obtained.
Final phase half-time (T1/2),
Time to reach maximum plasma level (Tmax),
Maximum plasma level (Cmax),
Area under time-level curve to infinite time (AUC0-inf),
Bioavailability (BA), wherein
Mean absorption time (MAT), wherein
MAT(h)=(mean residence time (MRT0-inf) after oral administration)−(mean residence time (MRT0-inf) after intravenous injection).

[3] = Three-month room-temperature storage of 20, 30 and 40 mg/mL aqueous solutions, visual observation (Example 5); format: physicochemical; details: three months
From the text: The filtrate was allowed to stand at room temperature for three months, and the aqueous solution after storage was visually observed so as to evaluate the solution state.

[4] = Dissolution of 100 mg/mL salt suspensions on heating and later crystal deposition at 25° C. (Example 2); format: physicochemical; details: 100 mg/mL, stirred at 100° C. for 30 minutes
Procedure: The thus-produced irinotecan nitric acid addition salt solution was stirred at 25° C. After stirring of the solution for about 42 hours, crystals of the irinotecan nitric acid addition salt were deposited.

[5] = peroral, 10 mg/kg as irinotecan
[6] = peroral, 10 mg/kg as irinotecan, mean ± SD (number of samples in parentheses), 10 mg/kg
[7] = peroral, 10 mg/kg as irinotecan, mean ± SD (number of samples in parentheses), listed as irinotecan sulfuric acid addition salt, 10 mg/kg
[8] = peroral capsule, 10 mg/kg as irinotecan, 20 min after administration
[9] = peroral, 10 mg/kg as irinotecan, mean ± SD (number of samples in parentheses), listed as irinotecan methanesulfonic acid addition salt, 10 mg/kg

CCc1c2c(nc3ccc(OC(=O)N4CCC(N5CCCCC5)CC4)cc13)-c1cc3c(c(=O)n1C2)COC(=O)[C@]3(O)CC [Irinotecan sulfuric acid addition salt, irinotecan sulfuric acid salt]
State of the Solution after Day 6 [1]: No crystal deposited | Dissolution of the salt in water at room temperature [1]: dissolved in water at room temperature | concentration at 10 min ([2]; male, beagle, dog, plasma, oral, 10 mg/kg, peroral capsule, 10 mg/kg as irinotecan, 10 min after administration, mean (n=6) ± SD): 126 ± 112 ng/mL | concentration at 20 min ([2]; male, beagle, dog, plasma, oral, 10 mg/kg, peroral capsule, 10 mg/kg as irinotecan, 20 min after administration, mean (n=6) ± SD): 1560 ± 1550 ng/mL | concentration at 20 min ([2]; male, beagle, dog, plasma, oral, 10 mg/kg, peroral, 10 mg/kg as irinotecan, twenty minutes after administration): 1560 ng/mL | BA (bioavailability) ([2]; peroral 10 mg/kg as irinotecan, AUC0-inf oral ÷ AUC0-inf intravenous × 100): 70.14% | Time after administration at which the plasma level became measurable [2, 5]: 10 min | Plasma irinotecan level maintained ([2]; peroral, 10 mg/kg as irinotecan, from hour 1 to hour 3): ≥ 3 µg/mL | AUC0-inf (area under time-level curve to infinite time) [2, 6]: 18.54 ± 1.59(5)^$ μg · h/mL | Tmax (time to reach maximum plasma level) [2, 6]: 2.33 ± 0.52(6) h | AUC0-inf (area under time-level curve to infinite time) [2, 7]: 13.54 µg·h/mL | Cmax (maximum plasma level) [2, 7]: 3670 ng/mL

CCc1c2c(nc3ccc(OC(=O)N4CCC(N5CCCCC5)CC4)cc13)-c1cc3c(c(=O)n1C2)COC(=O)C3(O)CC.O=S(=O)(O)O (stereo not shown) [Sulfuric acid addition salt (2), irinotecan sulfuric acid salt]
Solution state after storage ([3]; 20 mg/mL aqueous solution): − | Solution state after storage ([3]; 30 mg/mL aqueous solution): − | Solution state after storage ([3]; 40 mg/mL aqueous solution): −

Br.CCc1c2c(nc3ccc(OC(=O)N4CCC(N5CCCCC5)CC4)cc13)-c1cc3c(c(=O)n1C2)COC(=O)C3(O)CC (stereo not shown) [Irinotecan hydrobromic acid addition salt, reference compound]
State of the Solution after Day 6 (footnote symbol: salt not dissolved) ([1]; 100 mg/mL in water at room temperature): *1 | Dissolution of the salt in water at room temperature [1]: not dissolved in water at room temperature | Dissolution on heating [4]: maintained undissolved

CCc1c2c(nc3ccc(OC(=O)N4CCC(N5CCCCC5)CC4)cc13)-c1cc3c(c(=O)n1C2)COC(=O)[C@]3(O)CC [Irinotecan citric acid addition salt, irinotecan citric acid salt]
State of the Solution after Day 6 [1]: No crystal deposited | Dissolution of the salt in water at room temperature ([1]; listed as citric acid): dissolved in water at room temperature

CCc1c2c(nc3ccc(OC(=O)N4CCC(N5CCCCC5)CC4)cc13)-c1cc3c(c(=O)n1C2)COC(=O)[C@]3(O)CC [Irinotecan phosphoric acid addition salt, irinotecan phosphoric acid salt]
Dissolution of the salt in water at room temperature ([1]; listed as phosphoric acid): dissolved in water at room temperature

CCc1c2c(nc3ccc(OC(=O)N4CCC(N5CCCCC5)CC4)cc13)-c1cc3c(c(=O)n1C2)COC(=O)[C@]3(O)CC [Irinotecan fumaric acid addition salt, reference compound]
Dissolution of the salt in water at room temperature ([1]; listed as fumaric acid): not dissolved in water at room temperature

CCc1c2c(nc3ccc(OC(=O)N4CCC(N5CCCCC5)CC4)cc13)-c1cc3c(c(=O)n1C2)COC(=O)[C@]3(O)CC [Irinotecan methanesulfonic acid addition salt] [irinotecan methanesulfonic acid salt]
State of the Solution after Day 6 [1]: No crystal deposited | Dissolution of the salt in water at room temperature [1]: dissolved in water at room temperature | Plasma irinotecan level (no mean given) ([2]; peroral capsule, 10 mg/kg as irinotecan, 10 min after administration, 10 mg/kg): — (≧3 Beagles of a group consisting of six beagles exhibited a plasma level of ≦5 ng/mL.) | Plasma irinotecan level (no mean given) [2, 8]: — (≧3 Beagles of a group consisting of six beagles exhibited a plasma level of ≦5 ng/mL.) | Time after administration at which the plasma level reached the maximum (mean profile, text) [2, 5]: two | AUC0-inf (area under time-level curve to infinite time) [2, 6]: 17.58 ± 2.08(5)^$ μg · h/mL | Tmax (time to reach maximum plasma level) [2, 6]: 2.17 ± 0.41(6) h | AUC0-inf (area under time-level curve to infinite time) [2, 9]: 17.68 µg·h/mL | Cmax (maximum plasma level) [2, 9]: 3470 ng/mL

CCc1c2c(nc3ccc(OC(=O)N4CCC(N5CCCCC5)CC4)cc13)-c1cc3c(c(=O)n1C2)COC(=O)[C@]3(O)CC [Irinotecan succinic acid addition salt, irinotecan succinic acid salt]
Dissolution of the salt in water at room temperature ([1]; listed as succinic acid): dissolved in water at room temperature

CCc1c2c(nc3ccc(OC(=O)N4CCC(N5CCCCC5)CC4)cc13)-c1cc3c(c(=O)n1C2)COC(=O)[C@]3(O)CC [Irinotecan maleic acid addition salt, irinotecan maleic acid salt]
Dissolution of the salt in water at room temperature ([1]; listed as maleic acid): dissolved in water at room temperature

CCc1c2c(nc3ccc(OC(=O)N4CCC(N5CCCCC5)CC4)cc13)-c1cc3c(c(=O)n1C2)COC(=O)[C@]3(O)CC.O=[N+]([O-])O [Nitric acid addition salt (2), irinotecan nitric acid salt]
Solution state after storage ([3]; 20 mg/mL aqueous solution): − | Solution state after storage ([3]; 30 mg/mL aqueous solution): − | Solution state after storage ([3]; 40 mg/mL aqueous solution): −

CCc1c2c(nc3ccc(OC(=O)N4CCC(N5CCCCC5)CC4)cc13)-c1cc3c(c(=O)n1C2)COC(=O)[C@]3(O)CC [Irinotecan (7-ethyl-10-[4-(1-piperidino)-1-piperidino]carboxyoxycamptothecin) hydrochloride, reference compound]
Dissolution of the salt in water at room temperature ([1]; listed as hydrochloric acid, hydrochloride): not dissolved in water at room temperature | concentration at 3 h ([2]; male, beagle, dog, plasma, oral, 10 mg/kg, peroral, 10 mg/kg as irinotecan, 3 h, mean (n=6) ± SD): 2010 ± 450 ng/mL | concentration at 4 h ([2]; male, beagle, dog, plasma, oral, 10 mg/kg, peroral, 10 mg/kg as irinotecan, 4 h, mean (n=6) ± SD): 1620 ± 390 ng/mL | concentration at 6 h ([2]; male, beagle, dog, plasma, oral, 10 mg/kg, peroral, 10 mg/kg as irinotecan, 6 h, mean (n=6) ± SD): 947 ± 363 ng/mL | concentration at 8 h ([2]; male, beagle, dog, plasma, oral, 10 mg/kg, peroral, 10 mg/kg as irinotecan, 8 h, mean (n=6) ± SD): 538 ± 264 ng/mL | concentration at 12 h ([2]; male, beagle, dog, plasma, oral, 10 mg/kg, peroral, 10 mg/kg as irinotecan, 12 h, mean (n=6) ± SD): 179 ± 138 ng/mL | AUC(0-inf) ([2]; male, beagle, dog, plasma, po, 10 mg/kg, peroral, 10 mg/kg as irinotecan, mean ± SD (number of samples in parentheses), read-out: AUC0-inf (area under time-level curve to infinite time)): 11200 ng·h/mL | Cmax ([2]; male, beagle, dog, plasma, po, 10 mg/kg, peroral, 10 mg/kg as irinotecan, mean ± SD (number of samples in parentheses), read-out: Cmax (maximum plasma level)): 2030 ng/mL | Tmax ([2]; male, beagle, dog, plasma, po, 10 mg/kg, peroral, 10 mg/kg as irinotecan, mean ± SD (number of samples in parentheses), read-out: Tmax (time to reach maximum plasma level)): 2.83 ± 0.41 h | BA (bioavailability) ([2]; peroral 10 mg/kg as irinotecan, AUC0-inf oral ÷ AUC0-inf intravenous × 100, listed as irinotecan hydrochloric acid addition salt, hydrochloride): 48.80% | Plasma irinotecan level (no mean given) ([2]; peroral capsule, 10 mg/kg as irinotecan, 10 min after administration, hydrochloride, 10 mg/kg): —^b) (≧3 Beagles of a group consisting of six beagles exhibited a plasma level of ≦5 ng/mL.) | Plasma irinotecan level (no mean given) [2, 8]: — (≧3 Beagles of a group consisting of six beagles exhibited a plasma level of ≦5 ng/mL.)

CCc1c2c(nc3ccc(OC(=O)N4CCC(N5CCCCC5)CC4)cc13)-c1cc3c(c(=O)n1C2)COC(=O)[C@]3(O)CC.O=[N+]([O-])O [Nitric acid addition salt (1), irinotecan nitric acid salt]
Solution state after storage ([3]; 20 mg/mL aqueous solution): − | Solution state after storage ([3]; 30 mg/mL aqueous solution): − | Solution state after storage ([3]; 40 mg/mL aqueous solution): +

CCc1c2c(nc3ccc(OC(=O)N4CCC(N5CCCCC5)CC4)cc13)-c1cc3c(c(=O)n1C2)COC(=O)[C@]3(O)CC [irinotecan methanesulfonic acid salt]
bioavailability ([2]; male, beagle, dog, plasma, po, 10 mg/kg, peroral 10 mg/kg as irinotecan, AUC0-inf oral ÷ AUC0-inf intravenous × 100, read-out: BA (bioavailability)): 61 ± 3.84%

CCc1c2c(nc3ccc(OC(=O)N4CCC(N5CCCCC5)CC4)cc13)-c1cc3c(c(=O)n1C2)COC(=O)[C@]3(O)CC.O=P(O)(O)O [Phosphoric acid addition salt (2), irinotecan phosphoric acid salt]
Solution state after storage ([3]; 20 mg/mL aqueous solution): − | Solution state after storage ([3]; 30 mg/mL aqueous solution): − | Solution state after storage ([3]; 40 mg/mL aqueous solution): −
